Experimental data taken from PubChem BioAssay (NCI).
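Briefly, cells in 96-well plates were exposed to five compound concentrations for 48 h, and endpoints were estimated by linear interpolation. The concentration for full growth arrest is given as TGI.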 Where a SMILES comes first, the peptide text is derived from it. [ ]: non-standard residue; d: D form. The star is where a group is joined. NMeF = CN[CH](Cc1ccccc1)C(=O)O; NMeV = CN[CH](C(=O)O)C(C)C; Boc = CC(C)(C)OC(=O)*

What follows are compounds tested on CCRF-CEM leukemia (assay: DTP human tumour cell line panel, 48 h).

`CC(=O)OC(/C=C/c1ccccc1)=C(OC(C)C)/C1=C(\c2ccccc2)SCCCSC1=O` and `CCOC(=O)CC1(C(=O)OCC)c2[nH]c3ccccc3c2CCN1Cc1ccccc1` (configuration not stated) cannot be ordered by TGI: greater than 100 µM for the first, greater than 100 µM for the second.

First: Cc1ccc(-c2c(C#N)c(-c3ccc(Cl)cc3)c(C#N)c(=O)n2NS(=O)(=O)c2ccc(C)cc2)cc1
Second: COc1cc(Cn2c3c(c4cc(O)ccc42)Cc2ccccc2C3=O)cc(OC)c1
The TGI of the first is 1.7-fold lower: 51.8 µM for the first, 86 µM for the second.

`Cc1cc(S(=O)(=O)N=C2N(Cc3ccccc3)CCN2Cc2ccccc2)c(S)cc1Cl` and `O=C1C=C(C2=CC(=O)C(=O)c3ccccc32)c2ccccc2C1=O` cannot be ordered by TGI: greater than 100 µM for the first, greater than 100 µM for the second.

Compared with `CCCN1CCC(=O)N(CCC(F)(F)C(F)(F)C(F)(F)C(F)(F)C(F)(F)C(F)(F)F)C1=S`, `CCN(CC)CCNc1nc2ccc([N+](=O)[O-])cc2[n+]([O-])n1` is lower in TGI: greater than 100 µM for the first, 85.3 µM for the second.

`CSc1ccc2c(cc1=O)[C@@H](NC(=O)c1ccc(N)cc1)CCc1cc(O)c(O)c(O)c1-2` and `Cn1c2c(c3ccccc31)CC1c3c(c4ccccc4n3C)CC21` (configuration not stated) cannot be ordered by TGI: greater than 100 µM for the first, greater than 100 µM for the second.

`CC(C)C(NC(=O)OC(C)(C)C)C(=O)N(C)C(Cc1ccccc1)C(=O)N(C)C(C(=O)O)C(C)C` (stereo not drawn) (Boc-Val-[NMeF]-[NMeV]-OH; configuration not given here) and `O=P(Nc1ccc(Cl)cc1)(Oc1ccccc1)N(CCCl)CCCl` (configuration not stated) cannot be ordered by TGI: greater than 100 µM for the first, greater than 100 µM for the second.

`O=Cc1c(C(=O)O)[nH]c(=O)[nH]c1=O` and `Nc1cc2[nH]c(=O)c(=O)[nH]c2cc1N` cannot be ordered by TGI: greater than 100 µM for the first, greater than 100 µM for the second.

`N=C(N)c1ccc(C(NC(=O)CNS(=O)(=O)c2ccc3ccccc3c2)P(=O)(Oc2ccccc2)Oc2ccccc2)cc1` (configuration not stated) and `C(=Nc1ccc(-c2nc3ccccc3[nH]2)cc1)c1cccs1` cannot be ordered by TGI: greater than 100 µM for the first, greater than 100 µM for the second.

`C1=CC2SSSC2C1` (configuration not stated) and `C[N+](C)(C)CC1CCCCCCCCCCC1=O` (configuration not stated) cannot be ordered by TGI: greater than 100 µM for the first, greater than 100 µM for the second.

What follows are compounds tested on RXF 393 renal (assay: DTP human tumour cell line panel, 48 h).

Going from `CCN(CC)C(=O)Cn1c(C)cc2ccccc21` to `CCOC(=O)CC1(C(=O)OCC)c2[nH]c3ccccc3c2CCN1Cc1ccccc1` (configuration not stated), the TGI falls from greater than 100 µM to 32.7 µM.

`CC1(C)NC2C(=O)c3c([nH]c4ccccc34)[C@]3(C)CCC1CC23` (some centres not stated) and `C=CCCN1CCc2c([nH]c3ccccc23)C1C(=O)O` (configuration not stated) cannot be ordered by TGI: greater than 100 µM for the first, greater than 100 µM for the second.

First: COc1ccc2ccccc2c1/C=C/C(=O)c1ccccc1
Second: O=c1[nH]nc(-c2ccccc2)c2[nH]c3c4ccccc4ccc3c12
The TGI of the first is lower: 3.88 µM for the first, greater than 100 µM for the second.

Going from `O=C1C(CN2CCCCC2)CCC1CN1CCCCC1` (configuration not stated) to `C[N+](C)(C)CC1CCCCCCCCCCC1=O` (configuration not stated), the TGI rises from 28.3 µM to greater than 100 µM.

`c1ccc2c(c1)ccn2CCc1c[nH]c2ccccc12` and `C(=Nc1ccc(-c2nc3ccccc3[nH]2)cc1)c1cccs1` cannot be ordered by TGI: greater than 10 µM for the first, greater than 100 µM for the second.

`CC(C)[Si](OC1=C(C(=O)N(C)c2cccc(Cl)c2)CCCC1)(C(C)C)C(C)C` and `Cc1cn(C2CC(N(O)Cc3ccccc3)C(CO[Si](C)(C)C(C)(C)C)O2)c(=O)[nH]c1=O` (configuration not stated) are within 1.5-fold of each other in TGI: 18.9 µM for the first, 26.8 µM for the second.

`COc1cc(/C=C(\C#N)C(N)=O)cc(Br)c1O` and `COc1cc(Cn2c3c(c4cc(O)ccc42)Cc2ccccc2C3=O)cc(OC)c1` cannot be ordered by TGI: greater than 100 µM for the first, greater than 100 µM for the second.

`COc1cc(C(=O)N(Cc2cccnc2)C(=S)N(Cc2cccnc2)C(=O)c2cc(OC)c(OC)c(OC)c2)cc(OC)c1OC` and `COc1cc(CNCc2cc(OC)c(OC)c(OC)c2)cc(OC)c1OC` cannot be ordered by TGI: greater than 100 µM for the first, greater than 10 µM for the second.

`Oc1c(CN2CCOCC2)ccc2cccnc12` and `CCOCc1nc2c(OC)cc(-c3nc4ccc(N5CCN(C)CC5)cc4[nH]3)c(OC)c2[nH]1` cannot be ordered by TGI: greater than 10 µM for the first, 36.2 µM for the second.

Going from `CC1NC(=O)CC(c2ccccc2)N(N=O)C1c1ccccc1` (configuration not stated) to `Cc1cc(S(=O)(=O)N=C2N(Cc3ccccc3)CCN2Cc2ccccc2)c(S)cc1Cl`, the TGI rises from 53.5 µM to greater than 100 µM.

`O=C(N/N=C\c1cccc2c([N+](=O)[O-])cccc12)Nc1ccccc1` and `O=C(NNC(=S)Nc1cccc(Cl)c1)c1cc(-c2ccccc2)nc2ccccc12` are within 1.5-fold of each other in TGI: 26.3 µM for the first, 32.7 µM for the second.

Compared with `CCCCN1C(=O)N(c2ccc(OCC)cc2)C2N(CCCC)C1C(C)(C)C2(C)C` (configuration not stated), `CCN(CC)CCNc1nc2ccc([N+](=O)[O-])cc2[n+]([O-])n1` is higher in TGI: 39.1 µM for the first, greater than 100 µM for the second.

`CON(C)C(=O)CNC(=O)OCC1c2ccccc2-c2ccccc21` and `O=C1C=C(C2=CC(=O)C(=O)c3ccccc32)c2ccccc2C1=O` cannot be ordered by TGI: greater than 100 µM for the first, greater than 100 µM for the second.

`CC(=O)OC(/C=C/c1ccccc1)=C(OC(C)C)/C1=C(\c2ccccc2)SCCCSC1=O` and `N=C(N)c1ccc(C(NC(=O)CNS(=O)(=O)c2ccc3ccccc3c2)P(=O)(Oc2ccccc2)Oc2ccccc2)cc1` (configuration not stated) cannot be ordered by TGI: greater than 100 µM for the first, greater than 100 µM for the second.

First: Cc1ccc(-c2c(C#N)c(-c3ccc(Cl)cc3)c(C#N)c(=O)n2NS(=O)(=O)c2ccc(C)cc2)cc1
Second: CSc1ccc2c(cc1=O)[C@@H](NC(=O)c1ccc(N)cc1)CCc1cc(O)c(O)c(O)c1-2
The TGI of the first is lower: 65.7 µM for the first, greater than 100 µM for the second.

`CCCN1CCC(=O)N(CCC(F)(F)C(F)(F)C(F)(F)C(F)(F)C(F)(F)C(F)(F)F)C1=S` and `O=Cc1c(C(=O)O)[nH]c(=O)[nH]c1=O` cannot be ordered by TGI: greater than 100 µM for the first, greater than 100 µM for the second.

`Nc1cc2[nH]c(=O)c(=O)[nH]c2cc1N` and `C1=CC2SSSC2C1` (configuration not stated) cannot be ordered by TGI: greater than 100 µM for the first, greater than 100 µM for the second.
